Reference: patent US8940291B2 (priority 2009, dated 2015)

Tested on: VSVΔ51-resistant CT26 colon carcinoma tumors
Parameters: species or system Balb/c mice
Details: mouse, in vivo, ip

O=C1OC(c2ccccc2)C(Cl)=C1Cl (centres unmarked) [VSe1, 3,4-dichloro-5-phenyl-2,5-dihydrofuran-2-one]
tumor growth, compound alone: neither VSe1 nor VSVΔ51 alone had a significant effect on tumor growth
tumor progression, combination with VSVΔ51: significant delay in tumor progression
